Measured values: PMC4207550 (Drug Design, Development and Therapy, 2014)

Columns and labels:
Format in all cases: biochemical
[1] = target: human recombinant butyrylcholinesterase (hBuChE) (Homo sapiens, UniProt P06276); test: Inhibition of hBuChE, Ellman method
[2] = target: T1, human recombinant MAO B (Homo sapiens, UniProt P27338); test: Time-dependent inhibition of human recombinant MAO B; conditions: pre-incubation times 15–60 minutes
T1 sequence (P27338 1-520): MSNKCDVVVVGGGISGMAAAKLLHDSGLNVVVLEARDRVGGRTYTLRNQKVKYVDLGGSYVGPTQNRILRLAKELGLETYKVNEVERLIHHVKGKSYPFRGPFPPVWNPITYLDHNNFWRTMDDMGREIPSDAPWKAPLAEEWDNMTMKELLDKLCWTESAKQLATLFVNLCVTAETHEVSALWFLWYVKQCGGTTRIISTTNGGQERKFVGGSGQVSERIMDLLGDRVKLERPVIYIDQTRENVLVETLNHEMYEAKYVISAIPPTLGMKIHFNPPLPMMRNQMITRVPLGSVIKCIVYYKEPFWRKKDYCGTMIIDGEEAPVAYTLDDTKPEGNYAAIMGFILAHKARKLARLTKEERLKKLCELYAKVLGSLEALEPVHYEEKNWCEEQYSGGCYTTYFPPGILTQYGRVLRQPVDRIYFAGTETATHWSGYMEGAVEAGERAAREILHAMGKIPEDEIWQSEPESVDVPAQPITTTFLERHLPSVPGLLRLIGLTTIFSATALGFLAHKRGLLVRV

[3] = target: human recombinant acetylcholinesterase (hAChE) (Homo sapiens, UniProt P22303); test: Inhibition of hAChE, Ellman method
[4] = target: T1, human recombinant MAO B; test: Test of reversibility of inhibition of human recombinant MAO B

human recombinant butyrylcholinesterase (hBuChE), sequence (P06276 29-602): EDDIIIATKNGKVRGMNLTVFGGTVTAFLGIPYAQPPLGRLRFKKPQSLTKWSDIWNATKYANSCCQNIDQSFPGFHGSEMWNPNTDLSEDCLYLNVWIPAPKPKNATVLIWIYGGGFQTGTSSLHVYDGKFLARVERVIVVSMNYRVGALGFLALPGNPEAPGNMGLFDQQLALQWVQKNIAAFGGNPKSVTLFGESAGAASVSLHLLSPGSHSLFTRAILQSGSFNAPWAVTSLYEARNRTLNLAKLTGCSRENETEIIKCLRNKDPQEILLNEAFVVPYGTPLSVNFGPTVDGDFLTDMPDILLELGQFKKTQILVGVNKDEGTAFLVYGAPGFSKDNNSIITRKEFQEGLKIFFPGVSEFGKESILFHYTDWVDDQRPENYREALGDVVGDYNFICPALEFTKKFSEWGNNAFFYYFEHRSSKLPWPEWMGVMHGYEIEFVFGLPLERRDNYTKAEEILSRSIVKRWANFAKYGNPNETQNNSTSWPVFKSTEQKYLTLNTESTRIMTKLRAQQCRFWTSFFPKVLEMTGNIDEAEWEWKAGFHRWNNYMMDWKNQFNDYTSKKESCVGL
human recombinant acetylcholinesterase (hAChE), sequence (P22303 32-614): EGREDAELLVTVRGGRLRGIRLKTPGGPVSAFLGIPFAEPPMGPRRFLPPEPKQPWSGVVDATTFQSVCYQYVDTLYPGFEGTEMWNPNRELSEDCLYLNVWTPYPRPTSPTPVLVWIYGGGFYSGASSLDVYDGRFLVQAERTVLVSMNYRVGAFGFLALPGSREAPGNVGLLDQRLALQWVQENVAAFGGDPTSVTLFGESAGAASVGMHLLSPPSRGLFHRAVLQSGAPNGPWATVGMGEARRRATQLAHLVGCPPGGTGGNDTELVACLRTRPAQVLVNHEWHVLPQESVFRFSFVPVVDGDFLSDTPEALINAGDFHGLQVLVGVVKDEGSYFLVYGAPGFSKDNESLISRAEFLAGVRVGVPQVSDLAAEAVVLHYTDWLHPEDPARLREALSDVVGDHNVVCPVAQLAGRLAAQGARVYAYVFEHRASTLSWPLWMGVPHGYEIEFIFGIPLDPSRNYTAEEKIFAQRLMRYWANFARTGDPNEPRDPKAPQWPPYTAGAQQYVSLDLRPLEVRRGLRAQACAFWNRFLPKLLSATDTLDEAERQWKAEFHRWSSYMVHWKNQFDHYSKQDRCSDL

| Compound | IC50 [1] | time dependence of hMAO B inhibition [2] | IC50 [3] | reversibility of hMAO B inhibition ([4]; 50 μM, after 100-fold dilution with 1 mM tyramine) | inhibition at 50 µM ([4]; read-out: initial MAO B inhibition) | fold more potent than donepezil for hBuChE ([1]; vs donepezil) | fold more active than donepezil for the inhibition of hAChE ([3]; vs donepezil) |
| --- | --- | --- | --- | --- | --- | --- | --- |
| C#CCN(C)c1nc(NCCCCC2CCN(Cc3ccccc3)CC2)c(C#N)c(-c2ccccc2)c1C#N [DPH9] | 1190 nM | – | – | – | – | – | – |
| C#CCNc1nc(NCCCCC2CCN(Cc3ccccc3)CC2)c(C#N)c(-c2ccccc2)c1C#N [DPH12] | 770 ± 140 nM | – | – | – | – | – | – |
| C#CCN(C)c1nc(NCCCCC2CCN(Cc3ccccc3)CC2)c(C#N)cc1C#N [DPH14] | 835 ± 139 nM | time-dependent inhibition | 13.1 ± 2.1 nM | irreversible | 55% | – | – |
| C#CCNc1nc(NCCCCC2CCN(Cc3ccccc3)CC2)c(C#N)cc1C#N [DPH16] | 790 ± 110 nM | – | – | – | – | 9.2 fold | 3.1 fold |
